Test results published in patent US8633251B2, “Derivatives of aminoalkanols, method of obtaining of aminoalkanols and their use” (Uniwersytet Jagiellonski, priority 2008, dated 2014).

Columns and labels:
Format in all cases: in vivo
[1] = test system: maximal electroshock seizures; assay: Maximum Electroshock Seizure (MES) test, mice; conditions: mice; for MES, No. of protected animals/No. of used animals: time 0.5 h
Procedure, shortened: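 Mice received compound in methylcellulose i.p. or p.o. at 30, 100 and 300 mg/kg, with some tests at 10 and 3 mg/kg. At 0.5 or 4 h, after tetracaine eye-drops, current was delivered through corneal electrodes (60 Hz, 0.2 s, 50 mA). Groups were one mouse at 30 and 300 mg/kg and three at 100 mg/kg.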

[2] = test system: maximal electroshock seizures; assay: Maximum Electroshock Seizure (MES) test, rats; conditions: 0.25 h
Method: In order to define anticonvulsant activity, screening tests were performed, using animal models of seizures. […] The tests were based on administration of a compound to an animal and after certain time inducing state similar to epilepsy attack in human. Each substance (after dissolving in methylcellulose) was normally tested in doses 30, 100, and 300 mg/kg body weight (b.w.) (mice) or in 30 and 50 mg/kg b.w. (rats) in two possible routes of administration: intraperitoneal (i.p.) or oral (p.o.). […] […] (mice) the tests were also performed in doses 10 and 3 mg/kg b.w.
Maximum Electroshock Seizure (MES) test is an electric test, verifying activity towards generalized tonic-clonic seizures (grand mal epilepsy). […] Its procedure consists in administration to an animal a mentioned dose, […] (after anesthetic eye-drops: 0.5% tetracaine hydrochloride in 0.9% NaCl) and turning on electric current (60 Hz, 0.2 s, 50 mA (mice) or 150 mA (rats)). […]

[3] = test system: neurotoxicity (rotarod); assay: Neurotoxicity test (TOX), rotarod, mice; conditions: mice, time 0.5 h
[4] = test system: seizures induced by sound; assay: Sound-induced seizures, Frings mice; conditions: mice
Method: (§1) For some compounds, a test for proconvulsant activity was performed (TTE test), as well as a test on activity in focal seizures (related with limbic system, 6 Hz test, hippocampal kindling). […] A test on inhibiting seizures induced by sound (Frings mice) was performed for compounds 12 and 26-28. Electrophysiology tests also have been performed, for seizures induced by bicuculline, picrotoxin, and NMDA. Prevention of (pilocarpine induced) status epilepticus has been noticed.

[5] = test system: seizures induced by bicuculline; assay: Bicuculline (BIC) induced seizures
Method: as §1

[6] = test system: seizures induced by picrotoxin; assay: Picrotoxin (PIC) induced seizures
Method: as §1

[7] = test system: formalin-induced pain (acute/neuropathic and inflammatory phase); assay: Formalin test, mice; conditions: 21 mg/kg b.w.
Method: The test was performed with use of formaldehyde as a substance causing pain (neuropathic and inflammatory afterwards) in mice, which were injected formalin into a hind limb.
During the first 10 min. after administration the mouse is licking the hind limb (acute phase), afterwards there is a short break in behavior change, and then the mouse licks its limb again for another 20-30 min. (inflammatory phase) (FIG. 3 for 12 and FIG. 4 for 26). The acute phase represents direct affection on the peripheral nerve and the inflammatory phase is related with secretion of inflammation mediators from the damaged tissue and nerves. The described model tests effectiveness of a substance to inhibit acute and chronic excessive neuronal discharges in response to peripheral nerves activation.

[8] = test system: LTG-resistant amygdala seizures; assay: Lamotrigine-resistant amygdala kindling, rats; conditions: t=0.25 h, i.p.

With `CCC(CO)NCCOc1c(C)cccc1Cl` (stereo not drawn) [Compound 26, R,S-2N-[(2-chlor-6-methylphenoxy)ethyl]amino-1-butanol] the “MES, No. of protected animals/No. of used animals” value ([1]; dose 10 mg/kg b.w.) was 2/4, the “MES, No. of protected animals/No. of used animals” value ([1]; dose 30 mg/kg b.w.) was 1/1 and the “MES, No. of protected animals/No. of used animals” value ([1]; dose 100 mg/kg b.w.) was 1/1. The “ED50 (MES, mice, i.p., 0.25 h)” value ([1]; i.p., 0.25 h) was 21.44 mg/kg b.w, the “ED50 (MES, rats, i.p., 0.25 h)” value ([2]; i.p.) was 7.3 mg/kg b.w and the “ED50 (MES, rats, p.o., 0.25 h)” value ([2]; p.o.) was 67.69 mg/kg b.w. For the same compound, the “TOX, No. of animals exhibiting motor impairment/no. of used animals” value ([3]; dose 100 mg/kg b.w.) was 8/8, the “TOX, No. of animals exhibiting motor impairment/no. of used animals” value ([3]; dose 300 mg/kg b.w.) was 4/4 and the “ED50 (sound induced seizures, mice, 0.25 h)” value [4] was 6.05 mg/kg b.w. The “ED50 (BIC, 0.25 h)” value [5] was greater than 70 mg/kg b.w, the “ED50 (PIC, 0.25 h)” value [6] was greater than 70 mg/kg b.w and the “neuropathic pain inhibition (formalin test)” value [7] was 36%. The “acute phase of the formalin test” value ([7]; mice, i.p., first ca. 10 min. after formalin, p<0.01) was 64 % of control, the “inflammatory phase of the formalin test” value ([7]; mice, i.p., not statistically significant) was 72 % of control and the “effective dose (LTG-resistant amygdala seizures)” value [8] was 15 mg/kg b.w.
